From article PMC5340007 (BMC Cancer, 2017)

How the values were obtained:
[1] = Plasma pharmacokinetics, each drug alone and in combination; conditions: selumetinib + dacarbazine arm
Excerpt: When more than one maximum occurred, the reported value was assigned to the first occurrence.

[2] = cited from earlier work
[3] = Dose-limiting toxicity and maximum tolerated dose, phase I dose escalation; type: in vivo, human (patients with advanced solid tumors)
Excerpt: Dose-limiting toxicities (DLTs) in the study were defined as those related to treatment and occurring within the first 28 days of therapy. Hematologic DLTs were defined as afebrile grade 4 neutropenia for >5 days, grade 4 neutropenia associated with fever, or grade 4 thrombocytopenia. Non-hematological DLTs were defined as any ≥ grade 3 adverse event (AE) for >7 days that could not be controlled to grade ≤2 with appropriate treatment.
In part B (dose expansion) of the study, an additional 12 evaluable patients received treatment at the combination MTDs.

Row | Pharmacokinetic parameters administered alone vs in combination [1] | Plasma concentration-time profiles administered alone vs in combination [1] | Structure (SMILES) | recommended dose for selumetinib monotherapy ([2]; monotherapy) | monotherapy MTD ([2]; selumetinib monotherapy) [mg BID] | AUC(0–8) ([1]; plasma, dosed in combination, selumetinib 75 mg (N = 15), geometric mean (% CV)) | MTD of selumetinib ([3]; in combination with dacarbazine 1000 mg/m^2 every 21 days) [mg BID] | MTD of selumetinib ([3]; in combination with docetaxel 75 mg/m^2 every 21 days) [mg BID] | MTD of selumetinib ([3]; plus docetaxel with ppG-CSF, defined in part A) [mg BID] | recommended phase II dose of selumetinib ([3]; plus docetaxel without ppG-CSF) [mg BID] | MTD of selumetinib ([3]; with docetaxel 75 mg/m^2 without ppG-CSF) [mg BID]
1 | similar | similar | CN(C)/N=N/c1[nH]cnc1C(N)=O [Dacarbazine] | – | – | – | – | – | – | – | –
2 | – | – | Cn1cnc2c(F)c(Nc3ccc(Br)cc3Cl)c(C(=O)NOCCO)cc21 [Selumetinib] | 75 mg twice daily (BID) | 75 | 4544 (45.42) ng•h/mL | 75 | 75 | 75 | 75 | 75
